According to patent US12630544B2, “Compound, α-synuclein aggregate binder, and use thereof” (NATIONAL INSTITUTES FOR QUANTUM SCIENCE AND TECHNOLOGY, priority 2020, dated 2026):

Legend:
[1] = target: T1, α-synuclein aggregates (Mus musculus, UniProt O55042); assay: In vivo PET imaging of mouse brain (α-synuclein fibril-inoculated mouse vs physiological saline-injected mouse); settings: intravenous injection of 18F-labeled compound, 90 minutes scan
T1 construct: from tissue; host or cells: brain of C57/BL/6 mouse inoculated in the striatum with recombinant (E. coli) mouse α-synuclein fibrils; sections or living animal
Protocol: First, mouse α-synuclein was expressed in and extracted from E. coli as a recombinant protein, and then incubated in vitro to form insoluble α-synuclein aggregates. The α-synuclein aggregates were then inoculated into the striatum of a mouse. […] Note that the inoculation of the α-synuclein aggregates into the striatum of the mouse was carried out in the following manner. First, hair on the head of a 9-week-old C57/BL/6 male mouse which had been anesthetized with 1.5% (v/v) isoflurane was removed, and the scalp was disinfected with isodine, followed by application of xylocaine and incision in the scalp to expose the skull. Then, a hole was drilled in the skull at a position of 0.05 mm posterior to the bregma and 2 mm lateral to the midline, and 3 μl of an α-synuclein fibril solution (mouse α-synuclein fibril (4 mg/ml) in saline) was injected into a position […] ventral to the brain surface with use of a glass pipette. The scalp was then returned and sutured.
PET scanning was carried out with use of a micro PET Focus 220 animal scanner (Siemens Medical Solutions), which provided 95 slices each having a thickness of 0.851 mm (center thickness), a […]. Before the scanning, an α-synuclein fibril-inoculated mouse and a physiological saline-injected mouse (control) were each anesthetized with 1.5% (v/v) isoflurane. […]

[2] = target: α-synuclein aggregates (Homo sapiens, UniProt P37840); assay: In vitro fluorescence microscope measurement, amygdala sections of DLB patient brain; design: α-synuclein aggregates formed in the brain of the DLB patient; from tissue; host or cells: post-mortem human brain: amygdala of DLB patient (sections or homogenate); cerebellum of MSA patient; settings: 30 μM test compound
From the text: Postmortem human brains were obtained in autopsies carried out with respect to a patient with dementia with Lewy bodies (DLB) and a patient with Alzheimer's disease (AD). In a cryostat (HM560, Carl Zeiss), frozen tissue from the DLB patient was sliced into sections each having a thickness of 20 μm. Brain tissue from the AD patient was fixed in 10% neutral buffered formalin, embedded in a paraffin block, and sliced into sections each having a thickness of 6 μm.
Postfixed fresh frozen sections of amygdala tissue obtained from the brain of the DLB patient and deparaffinized sections of formalin-fixed paraffin-embedded middle frontal gyrus tissue obtained from the brain of the AD patient were used. Each brain section and a 30 μM test compound were incubated in a 50% ethanol solution at room temperature for 30 minutes. Thereafter, the section was washed with a 50% ethanol solution for 5 minutes and with ultrapure water for 3 minutes. This washing was carried out twice. After the section was mounted in a mounting medium (VECTASHIELD H-1000, Vector Laboratories), an image of a lesion-enriched area on the section was obtained with use of a fluorescence microscope (DM4000, Leica, excitation wavelength: 391 nm to 437 nm). In FIG. 1, each arrowhead indicates fluorescence from the compound binding to α-synuclein aggregates in the brain of the DLB patient, each arrow indicates fluorescence from the compound binding to amyloid-β aggregates in the brain of the AD patient, and an asterisk indicates fluorescence from the compound binding to tau aggregates in the brain of the AD patient. The fluorescence intensities of lesion-enriched areas and lesion-free areas (background) were quantified with use of analysis software (Image J). Note that SPAL-T-05 and SPAL-T-06 were each used as the test compound. Note also that BF-227 (2-(2-[2-dimethylaminothiazol-5-yl]ethenyl)-6-(2-[fluoro]ethoxy)benzoxazole (catalog No.: NP039-0)) and PBB3 (2-((1E,3E)-4-(6-(methylamino)pyridin-3-yl)buta-1,3-dienyl)benzo[d]thiazol-6-ol) (catalog No.: NP039-0), each available from NARD INSTITUTE, LTD., were each used as a control compound.

SMILES: CNc1cnc(C#C/C=C/c2nc3ccc(OCC(O)CF)cc3s2)cn1 (stereo not drawn) [SPAL-T-06, (E)-1-fluoro-3-((2-(4-(5-(methylamino)pyrazin-2-yl)but-1-en-3-yn-1-yl)benzo[d]thiazol-6-yl)oxy)propan-2-ol]
- brain-entering property / clearance rate from the brain (PET) [1]: adequate brain-entering property or an adequate clearance rate from the brains
- binding to α-synuclein aggregates formed in the brain of the DLB patient (fluorescence) ([2]; 50% ethanol, room temperature, 30 minutes, amygdala sections): reactivity greater than that of PBB3
- binding selectivity: α-synuclein aggregates (DLB brain) versus tau aggregates or amyloid-β aggregates (AD brain) ([2]; fluorescence of lesion-enriched vs lesion-free areas): greater than binding of each of SPAL-T-06 and SPAL-T-05 to tau aggregates or amyloid-β aggregates
